Several values for one entry are separate records, joined by “and”; a condition that tells them apart may be missing. Equal values may be shown once. Read-outs that look alike come from different tables or passages of the source.

Here are results for 2 compounds from patent publication US20120251999A1, “VITRIFICATION SYSTEMS AND METHODS” (THE BRIGHAM AND WOMEN'S HOSPITAL, INC., priority 2011, published 2012).

For data set [1] the following is noted: ejected into liquid nitrogen. An excerpt:
The experimental setup was as described in Song et al. PNAS 2010.

Another data set concerns mouse oocytes. Briefly: Parthenogenetic activation of oocytes using SrCl2 (cleavage and blastocyst development). The format is cell-based. Here is the method:
Prior to parthenogenetic activation, oocytes were cultured in KSOM medium supplemented with 4 mg/ml BSA for 2 h to allow oocytes to recover from the previous experimental procedure. For parthenogenetic activation, oocytes were incubated in SrCl2 solution in KSOM medium at 37° C. in 5% CO2/95% air for 2 h and then washed three-times with FHM medium. Oocytes were then transferred to KSOM medium and cultured at 37° C. in 5% CO2/95% air.
To determine the optimal SrCl2 concentration to parthenogenetically activate fresh mouse oocytes, we tested four SrCl2 concentrations (10 mM, 20 mM, 50 mM and 100 mM). Over the following 6 days, treated oocytes were examined microscopically every day for embryo development to the cleavage and blastocyst stages. Day 1 is defined as 24 h after treatment. Oocytes incubated in the regular KSOM medium without SrCl2 were used as controls. To determine whether droplet encapsulation has effect on oocyte parthenogenetic activation, oocytes in FHM medium were ejected into a center well culture dish containing 400 μl of FHM medium. To minimize the effects of shear stress generated at the ejector tip when using medium instead of CPAs, the flow rate of nitrogen gas was reduced to 0.6 SLPM to obtain droplet sizes similar to those obtained at 0.8 SLPM using CPAs. Oocytes were retrieved and cultured in KSOM medium at 37° C. in 5% CO2/95% air for 2 h before parthenogenetic activation. SrCl2 solution at the concentration of 50 mM, which gave the highest cleavage and blastocyst rates with control oocytes, was used for the activation of oocytes following ejection into the medium.

Setting [2] is: 10 mM SrCl2, fresh control oocytes.
The mark [3] stands for this setting: 10 mM SrCl2, fresh control oocytes, 81 initiated.
Where [4] appears, read: 20 mM SrCl2, fresh control oocytes.
Where [5] appears, read: 20 mM SrCl2, fresh control oocytes, 82 initiated.
Setting [6] is: 50 mM SrCl2, fresh control oocytes.
The mark [7] stands for this setting: 50 mM SrCl2, fresh control oocytes, 79 initiated.
[8] abbreviates: 50 mM SrCl2, oocytes after ejection with medium.
Where [9] appears, read: 100 mM SrCl2, fresh control oocytes.
Where [10] appears, read: 100 mM SrCl2, fresh control oocytes, 88 initiated.

Turning to `CC(O)CO` (stereo not shown) [PrOH, 1,2-propanediol], the vitrification of droplets entry in data set [1] (194 μm droplets, 3 M PrOH) is “vitrified”; in data set [1] (525 μm droplets, 4.5 M PrOH), “non-vitrified”.

In the case of `[Cl-].[Cl-].[Sr+2]` [SrCl2], the “Blastocysts developed (%)” value with mouse oocytes (setting [2]) was 0 (0); in the data set on mouse oocytes (setting [4]), 15.9%; in the data set with mouse oocytes (setting [6]) it was 49.4%; in the data set with mouse oocytes (setting [8]) it was 26.0%; in the data set on mouse oocytes (setting [9]), 2.3%. Besides, the “Oocytes cleaved (%)” value in the data set on mouse oocytes (setting [2]) was 3.7%; with mouse oocytes (setting [4]), 46.3%; in the data set with mouse oocytes (setting [6]) it was 88.9% and 88.6%; in the data set with mouse oocytes (setting [8]) it was 96% and 97.0%; in the data set with mouse oocytes (setting [9]) it was 48.9%. The “Blastocysts developed (number)” value in the data set on mouse oocytes (setting [3]) was 0 (0); in the data set on mouse oocytes (setting [5]), 13; in the data set with mouse oocytes (setting [7]), 33; with mouse oocytes (50 mM SrCl2, oocytes after ejection with medium, 100 initiated) it was 26; with mouse oocytes (setting [10]) it was 2. For the same compound, the “No. of Oocytes cleaved” value in the data set on mouse oocytes (setting [3]) came out at 3; in the data set with mouse oocytes (setting [5]), 38; with mouse oocytes (setting [7]) it was 70; in the data set with mouse oocytes (50 mM SrCl2, oocytes after encapsulation in medium droplets and ejection into medium, 100 initiated) it was 96; with mouse oocytes (setting [10]) it was 43.
